Laboratory results: ChEMBL document CHEMBL1806415, “Growth inhibition of Escherichia coli and methicillin-resistant Staphylococcus aureus by targeting cellular methionine aminopeptidase” (Eur J Med Chem, 2011)
Values after ≈ are worked out from the molar mass of the structure shown. Active and inactive are the calls of the source. The rule behind the calls is not given here.

What was measured:
Escherichia coli [1] = assay: Antibacterial activity against Escherichia coli AS19 assessed as growth inhibition after 10 hrs by spectrophotometry; type: functional, organism-based; details: AS19, 10 h
[2] = Inhibition of Escherichia coli recombinant MetAP expressed in Escherichia coli BL21(DE3) assessed as production of fluorescent aminomethylcoumarin using Met-AMC as substrate by fluorescence assay in presence of […]
Staphylococcus aureus [3] = assay: Antibacterial activity against […] Staphylococcus aureus ATCC 43300 assessed as growth inhibition after 10 hrs by spectrophotometry; type: functional, organism-based; details: ATCC 43300, 10 h
Staphylococcus aureus [4] = assay: Antibacterial activity against methicillin-resistant Staphylococcus aureus ATCC BAA1680 assessed as growth inhibition after 10 hrs by spectrophotometry; type: functional, organism-based; details: ATCC BAA1680, 10 h
Escherichia coli [5] = assay: Inhibition of MetAP in Escherichia coli AS19 harboring pBACE plasmid assessed as cellular accumulation of unprocessed GST after 50 hrs by mass spectrometry

| SMILES | MIC90 (Escherichia coli [1]) | IC50 [2] | IC50 (Staphylococcus aureus [3]) | MIC90 (Staphylococcus aureus [3]) | IC50 (Staphylococcus aureus [4]) | MIC90 (Staphylococcus aureus [4]) | IC50 (Escherichia coli [1]) | inhibition (Escherichia coli [5]) |
| --- | --- | --- | --- | --- | --- | --- | --- | --- |
| Cc1sc(C)c(-c2ccc(O)c(O)c2)c1Br | 5 µg/mL (≈ 16.7 µM) | 63.6 µM | 12.2 µM | 18 µg/mL (≈ 60.2 µM) | 23.2 µM | 13 µg/mL (≈ 43.5 µM) |  |  |
| Oc1ccc(-c2ccsc2)cc1O | 15 µg/mL (≈ 78 µM) | 38.4 µM | 11.7 µM | 11 µg/mL (≈ 57.2 µM) | 41.7 µM | 13 µg/mL (≈ 67.6 µM) |  |  |
| Oc1ccc(-c2sccc2Cl)cc1O | 5 µg/mL (≈ 22.1 µM) | 15.4 µM | 25.8 µM | 12 µg/mL (≈ 52.9 µM) | 63.8 µM | 25 µg/mL (≈ 110 µM) | 23.3 µM | Active |
| Oc1ccc(-c2cc(Cl)sc2Cl)cc1O | 3 µg/mL (≈ 11.5 µM) | 51.9 µM | 11.3 µM | 4 µg/mL (≈ 15.3 µM) | 4.6 µM | 2 µg/mL (≈ 7.66 µM) |  | Active |
| CCCCc1ccsc1-c1ccc(O)c(O)c1 | 5 µg/mL (≈ 20.1 µM) | 37.3 µM | 8.2 µM | 5 µg/mL (≈ 20.1 µM) | 12.4 µM | 4 µg/mL (≈ 16.1 µM) |  |  |
| CCCc1ccsc1-c1ccc(O)c(O)c1 | 4 µg/mL (≈ 17.1 µM) | 49.5 µM | 13.9 µM | 16 µg/mL (≈ 68.3 µM) | 33.4 µM | 11 µg/mL (≈ 46.9 µM) |  |  |
| Oc1ccc(-c2sc(Cl)c(Cl)c2Cl)cc1O |  | 22.1 µM | 2.8 µM | 1 µg/mL (≈ 3.38 µM) | 1 µM | 0.7 µg/mL (≈ 2.37 µM) | 2.3 µM |  |
